{"source": "patent US6071521A", "about": "“Pharmaceutical composition having an antitumor activity and a process for preparation thereof” (priority 1989, dated 2000)", "origin": "cited, not measured here", "conditions": "water, alcohol, chloroform, and chlorinated ethylene"}
{"compound": "C=C1C=CC(=O)O1", "note": "[protoanemonin, Protoanemonin]", "values": [{"measurement": "solubility", "result": "dissolved in water, alcohol, chloroform, and chlorinated ethylene"}]}
